{
  "source": "patent US5356886A",
  "about": "“Antiviral phosphono-alken derivatives of purines” (Beecham Group p.l.c., priority 1990, dated 1994)",
  "assay_type_in_all_cases": "cell-based",
  "key": {"[1]": {"test": "Cytotoxicity for the cell monolayers in the FIV test", "conditions": "cat, crandell feline kidney cells, no cytotoxicity noted with concentrations up to this value, read-out: cytotoxicity for the cell monolayers", "description": "(§1) Drug stocks were diluted to the appropriate concentration, in medium (e.g. 10 mg/ml to 200 μg/ml). 150 μl of each drug was dispersed in triplicate, across the top row of a microtitre plate (150 μl of media for virus and cell control, vc and cc). 100 μl of medium was dispersed into all other wells. The wells were serially diluted moving down the plate, removing 50 μl from each well and transferring to the next row. 50 μl was discarded from the bottom wells.\n(§2) Trypsinisation was carried out from a confluent cell monolayer of Crandell Feline Kidney cells, in 10% trypsin, followed by resuspension in media at 1×10^6 per ml, ensuring that a single cell suspension is achieved. (Media: 90% 1×RPMI, 25 mM hepes buffer; 10% Foetal calf serum; 2% Glutamine; 2% penecillin/streptomycin.)\n(§3) FIV Glasgow 8 virus was diluted to 4× the required virus challenge in medium (40 TCID50 /ml). The virus infected medium was mixed with an equal volume of cell suspension, 100 μl of which was aliquoted into each well of the drug plate, except cell control. 100 μl of cell suspension at 5×10^4 per ml was added to the latter. This gives a final cell concentration of 2.5×10^4 per ml, and drug range 100-0.03 μg/ml. The plates were incubated at 37° C., 5% CO2 in an air humidified incabator for 11-14 days. The cells were fixed by immersing the plates in formoli saline (10% formaldehyde; 10% 1.5M NaCl; 80% water) for 1 hour minimum. The cells were stained with 10% crystal violet for 15 minutes.\n(§4) The assay was scored by looking for presence of syncitia and, virus induced cytopathic effect in the cell monolayers, under a microscope. Results are given as the minimum concentration of drug inhibiting syncitial production, minimum inhibitory concentration, MIC."}, "HIV": {"test_system": "HIV", "test": "HIV Suppression test, viral RNA (nucleic acid hybridisation) in peripheral human lymphocytes", "conditions": "Human immunodeficiency virus 1, Lymphocyte, 96 h; Concn. 0.1 μM; read-out: % Inhibition on Day 4 after infection, Viral RNA", "description": "Peripheral human lymphocytes were prepared, cultivated, and harvested as above. Following the determination of the lymphocyte surface markers, unstimulated and mitogen stimulated cells were combined in a ratio of 1:2.\nUnder safety conditions these cells are infected with a standard preparation of HIV. The cells are sedimented by centrifugation. The supernatant was discarded and cells were resuspended in the HIV inoculum.\nThis inoculum is a liquid suspension of HIV-1 strain virus, pretested and adjusted to a titer that results in a synthesis of viral core protein p24 of >100 ng/ml at day four following infection of human lymphocytes according to the protocol.\n3×10^8 lymphocytes were resuspended in 1 ml HIV inoculum and incubated at 37° C. for 60 minutes. Subsequently, the cells were washed two times with 50 ml of culture medium and resuspended in culture medium containing 10 units/ml of human recombinant interleukin-2 to yield a cell concentration of 2×10^6 cells/ml. 100 μof this cell suspension was added to each well of the microtiter plates containing the diluted solutions of the compounds. The microtiter plates were cultivated in an incubator with a humidified atmosphere and 5% CO2 at 37° C.\nAccordingly, a fraction of lymphocytes was mock-infected with the same virus preparation that was heat inactivated (30 minutes at 56° C.) prior to infection.\nOn each of the days 2,3 and 4 post infection one of the microtiter plates which had been established in triplicate was prepared for determination of viral replication. Viral RNA is determined within the cells whereas the viral core protein p24 was detected in the supernatant of the lymphocyte culture.\nAccordingly, 150 μl of supernatant were removed from each well and transferred to the well of a microtiter plate containing 50 μl/well of SDS (sodium dodecylsulfate, 0.08%). These plates were stored frozen. 50 μl of stop solution (1% SDS, 20 mM sodium acetate, pH 5.0, and 200 μg/ml heparin) were added to the cells remaining in each well. The plates were stored frozen.\nThe concentration of p24 synthesized by the HIV infected cells was determined by means of a sandwich ELISA, while the concentration of viral RNA was quantitated by nucleic acid hybridisation, using a ^32 P-labelled DNA probe for the gag/pol region of the viral genome. Absolute levels of viral antigen and RNA in drug treated samples were compared with untreated, virus-infected controls and the percentage inhibition calculated."}, "FIV": {"test_system": "FIV", "test": "Test for Feline Immunodeficiency Virus (FIV Glasgow 8) in Crandell Feline Kidney cells", "conditions": "read-out: MIC (minimum concentration of drug inhibiting syncitial production)", "description": "as §1, §2, §3, §4"}},
  "data": [
    {"smiles": "Nc1nc2c(ncn2OCC/C=C/P(=O)(O)O)c(=O)[nH]1", "note": "[Example 1, (E)-9-(4-phosphonobut-3-enyloxy)guanine]", "values": [
      {"measurement": "MCC", "setting": "[1]", "value": "> 100", "unit": "µg/mL"},
      {"measurement": "inhibition at 0.1 µM", "setting": "HIV", "value": 93, "unit": "%"},
      {"measurement": "MIC", "setting": "FIV", "value": 0.01, "unit": "µg/mL"}
    ]}
  ]
}
